Test results from patent US20130317037A1, “METHOD OF ADMINISTRATION AND TREATMENT” (GlaxoSmithKline Intellectual Property Development Limited, priority 2010, published 2013).
Like-named read-outs stand apart in the source and are kept apart here.

Experiments:
Assay type in all cases: cell-based, human
DU4475 = assay: Panel A proliferation assay (CellTiter-Glo); HER2 2 copies, KRAS WT, PIK3CA WT; conditions: for IC50: Homo sapiens, DU-4475
Experimental: (§1) A total of 15 breast cancer cell lines were used in this study. […] Cells of each line were seeded into a 384-well microtiter plate at two cell densities. Low density ranges were 300-1800 cells/well, and a high density was 600 to 3600 cells/well). The plating density was determined by the rate of proliferation of the cell line in the absence of any inhibitor and varied amongst cell lines. High plating densities were double that of low density. Each cell density was plated in triplicate. […] In addition, there were 24 wells of dimethyl sulfoxide (DMSO)-treated controls at each density. After seeding, the cells were incubated at 37° C. in 5% CO2 for 24 hours. […] After a 72 h incubation, an equal volume of the CellTiter-Glo (CellTiter-Glo Luminescent Cell Viability Assay, Promega, Madison, Wis.) to that of the cell culture medium was added into each well of the plate. After the contents were mixed to induce cell lysis and stabilization, cell luminescence was recorded using a SpectraMax M5^e (Molecular Devices, Sunnyvale, Calif., USA)
(§2) Specifically, the midpoint of the growth window (the gIC50) falls half way between the number of cells at the time of compound addition (T=0) and the growth of control cells treated with DMSO. The gIC50 value serves as a metric for measuring the inhibition of proliferation in cancer cells. The curves for each seeding density for each cell line were manually inspected for both data quality and appropriateness of curve fitting. Where the starting data were poor the curve and subsequent gIC50s were excluded from further analysis. Cell line seedings were considered of poor quality when the r^2 value of the fitted curve was <0.75. Finally, where data quality permits, the Ymin values (defined as the maximum growth inhibition relative to the cell density at Time-zero) were calculated as a measure of cytotoxicity where data were of reasonable quality.

MDA-MB-468 = assay: as above; conditions: for IC50: Homo sapiens
Experimental: as §1, §2

NCI/ADR-RES = assay: as above; conditions: for IC50: Homo sapiens
Experimental: as §1, §2

KPL-1 = assay: Panel A proliferation assay (CellTiter-Glo); HER2 2 copies, KRAS WT, PIK3CA p.E545K; conditions: for IC50: Homo sapiens
Experimental: as §1, §2

ZR-75-1 = assay: Panel A proliferation assay (CellTiter-Glo); HER2 2 copies, KRAS WT, PIK3CA WT; conditions: for IC50: Homo sapiens
Experimental: (§3) A total of 15 breast cancer cell lines were used in this study. These cells were cultured in RPMI-1640 and supplemented with 5% or 10% fetal bovine serum, 2 mM GlutaMAX™ and 1 mM sodium pyruvate, or in growth medium recommended by the suppliers [American Type Culture Collection, Manassas, Va., USA; Developmental Therapeutics Program, National Cancer Institute, Bethesda, Md., USA; German Collection of Microorganisms and Cell Cultures (DSMZ), Braunschweig, Germany; European Collection of Cell Cultures (ECACC), Porton Down, UK]. Cells of each line were seeded into a 384-well microtiter plate at two cell densities. Low density ranges were 300-1800 cells/well, and a high density was 600 to 3600 cells/well). The plating density was determined by the rate of proliferation of the cell line in the absence of any inhibitor and varied amongst cell lines. High plating densities were double that of low density. Each cell density was plated in triplicate. In total there were 30 wells to be treated with increasing concentrations of Compound B for each cell line at each density. In addition, there were 24 wells of dimethyl sulfoxide (DMSO)-treated controls at each density. After seeding, the cells were incubated at 37° C. in 5% CO2 for 24 hours. Subsequently, Compound B was added to each cell line with 10 concentrations. The dosing solution of Compound B was first prepared in DMSO at a master stock concentration of 10 mM. […] were then made of the stock solution to give a range of working stock concentrations; 10.00 mM, 3.164 mM, 1.001 mM, 316.9 μM, 100.3 μM, 31.74 μM, 10.04 μM, 3.178 μM, 1.006 μM and 318.3 nM. The working stock concentrations of Compound B were then dispensed into the seeded cancer cell lines using a Biomek FX liquid handler to give final treatment concentrations of 0.1% of the stock concentration. A similar volume of DMSO without Compound B was dispensed into the 24 control wells of each seeding density at a concentration of 0.1%. Also, a zero-time plate prepared with a similar cell seeding was read for each cell line at each seeding density immediately after the addition of the DMSO control. After a 72 h incubation, an equal volume of the CellTiter-Glo (CellTiter-Glo Luminescent Cell Viability Assay, Promega, Madison, Wis.) to that of the cell culture medium was added into each well of the plate. After the contents were mixed to induce cell lysis and stabilization, cell luminescence was recorded using a SpectraMax M5^e (Molecular Devices, Sunnyvale, Calif., USA)
as §2, with “The luminescence of Compound B treated cells was compared relative to the average of the 24 DMSO-treated control wells at each cell density for every concentration of Compound B for all triplicate wells. The percent intensity values were used in model 205 of XLfit in Microsoft Excel to calculate gIC50s for the low and high seeding density (a 4 parameter logistical fit). Specifically,” for “Specifically,”

MDA-MB-175-VII = assay: as above; conditions: for IC50: Homo sapiens
Experimental: as §3
as §2, with “The luminescence of Compound B treated cells was compared relative to the average of the 24 DMSO-treated control wells at each cell density for every concentration of Compound B for all triplicate wells. The percent intensity values were used in model 205 of XLfit in Microsoft Excel to calculate gIC50s for the low and high seeding density (a 4 parameter logistical fit). Specifically,” for “Specifically,”

[1] = high seeding density, 72 h, read-out: High Density gIC50
[2] = low seeding density, 72 h, read-out: Low Density gIC50
[3] = mean of low and high density, read-out: Mean gIC50
[4] = high density, % of cells at T = 0
[5] = low density, % of cells at T = 0

In the case of `COc1ncc(-c2ccc3nccc(-c4ccnnc4)c3c2)cc1NS(=O)(=O)c1ccc(F)cc1F` [Compound B, 2,4-difluoro-N-{2-(methyloxy)-5-[4-(4-pyridazinyl)-6-quinolinyl]-3-pyridinyl}benzenesulfonamide], the “High Density Y-Min” value (DU4475; DU4475, high density, % of cells at T = 0) is reported as −8.4%, the “Low Density Y-Min” value (DU4475; DU4475, low density, % of cells at T = 0) is reported as 1.2% and the IC50 (DU4475; DU4475, high seeding density, 72 h, read-out: High Density gIC50) is reported as 20.6 nM. It also gave an IC50 (DU4475; DU4475, low seeding density, 72 h, read-out: Low Density gIC50) of 3.6 nM, an IC50 (DU4475; DU4475, mean of low and high density, read-out: Mean gIC50) of 12.1 nM and an IC50 (MDA-MB-468; MDA-MB-468, high seeding density, 72 h, read-out: High Density gIC50) of 32.1 nM. The IC50 (MDA-MB-468; MDA-MB-468, low seeding density, 72 h, read-out: Low Density gIC50) was 37.2 nM, the IC50 (MDA-MB-468; MDA-MB-468, mean of low and high density, read-out: Mean gIC50) was 34.9 nM and the “High Density Y-Min” value (MDA-MB-468; MDA-MB-468, high density, % of cells at T = 0) was 35.5%. For the same molecule, the “Low Density Y-Min” value (MDA-MB-468; MDA-MB-468, low density, % of cells at T = 0) was 27.9%, the IC50 (NCI/ADR-RES; [1]) was 25.4 nM and the IC50 (NCI/ADR-RES; [2]) was 51.6 nM. The IC50 (NCI/ADR-RES; [3]) was 38.5 nM, the “High Density Y-Min” value (NCI/ADR-RES; [4]) was 98.9% and the “Low Density Y-Min” value (NCI/ADR-RES; [5]) was 518.6%. It also gave an IC50 (KPL-1; KPL-1, high seeding density, 72 h, read-out: High Density gIC50) of 2.7 nM, an IC50 (KPL-1; KPL-1, low seeding density, 72 h, read-out: Low Density gIC50) of 2 nM and an IC50 (KPL-1; KPL-1, mean of low and high density, read-out: Mean gIC50) of 2.35 nM. For the same molecule, the “High Density Y-Min” value (KPL-1; KPL-1, high density, % of cells at T = 0) was 130.2%, the “Low Density Y-Min” value (KPL-1; KPL-1, low density, % of cells at T = 0) was 126.6% and the IC50 (ZR-75-1; ZR-75-1, high seeding density, 72 h, read-out: High Density gIC50) was 0.9 nM. The IC50 (ZR-75-1; ZR-75-1, low seeding density, 72 h, read-out: Low Density gIC50) was 0.8 nM, the IC50 (ZR-75-1; ZR-75-1, mean of low and high density, read-out: Mean gIC50) was 0.85 nM and the “High Density Y-Min” value (ZR-75-1; ZR-75-1, high density, % of cells at T = 0) was 22.1%. For the same molecule, the “Low Density Y-Min” value (ZR-75-1; ZR-75-1, low density, % of cells at T = 0) was 19.8%, the IC50 (MDA-MB-175-VII; [1]) was 1.1 nM and the IC50 (MDA-MB-175-VII; [2]) was 1.7 nM. The IC50 (MDA-MB-175-VII; [3]) was 1.4 nM, the “High Density Y-Min” value (MDA-MB-175-VII; [4]) was 12.2% and the “Low Density Y-Min” value (MDA-MB-175-VII; [5]) was 19.8%.
